Reference: publication PMC8597055, “Exploration of Pyrazolo[1,5‐a]pyrimidines as Membrane‐Bound Pyrophosphatase Inhibitors” (Chemmedchem, 2021)
Values joined by “and” are separate entries in the source; they are usually repeats but may differ in a detail not shown here. Identical values can stand only once. Like-named read-outs stand apart in the source and are kept apart here.

What was measured:
[1] = target: T1, Thermotoga maritima mPPase (TmPPase) (Thermotoga maritima, UniProt Q9S5X0); experiment: TmPPase inhibition assay (96-well); type: biochemical
From the text: We started from the previously identified 5‐arylisoxazole‐3‐carboxylate core present in 2–5 (Figure 1, highlighted in blue). Using KNIME,[30] we did a substructure search for commercial analogues in the ZINC12 database[31] […] Therefore, we manually picked compounds from a diverse collection provided by a single vendor (Ambinter, 174 matches for the substructure query). Out of the search results, we selected fifteen isoxazoles for testing in vitro. For all compounds in this manuscript, we tested activity using a 96‐well based assay that detects the inhibition of TmPPase.[22, 23, 24]
(§1) All commercially obtained compounds had purities >90 % as specified by the vendor. Synthesized compounds were >95 % pure as determined by LC–MS and characterized by HRMS. The inhibition assay was carried out with purified TmPPase as previously reported.[22, 23, 24] The best hits 17 a, 19 a, and 20 a, were validated using eight compound concentrations in triplicate. Further hit validation was done against the purified mPPase from P. falciparum (PfPPase‐VP1) expressed in baculovirus‐infected insect cells (expression, purification and further enzyme analysis will be described in more detail elsewhere). 4 μL of the purified PfPPase‐VP1 (2.0 mg/mL) was reactivated in 96 μL of reactivation buffer, i. e. 20 mM 2‐(N‐morpholino)ethanesulfonic acid (MES) pH 6.5, 3.5 % (v/v) glycerol, 2 mM dithiothreitol (DTT) and 12 mg/mL L‐α‐phosphatidylcholine from soybean. For each tube strip, 3 μL of the reactivated PfPPase‐VP1 was added into 12 μL of reaction buffer (200 mM Tris‐Cl pH 8.0, 8.0 mM MgCl2, 333 mM KCl, 67 mM NaCl) and 25 μL of inhibitor solution. The reaction mixtures were incubated at 50 °C for 5 min and the assay was started with the addition of 10 μL of 2 mM sodium pyrophosphate and further incubation at 50 °C for 45 min. The reaction termination and colour development were done as earlier described.[22, 23, 24]
6 IC50 plots from the TmPPase inhibition assay
The blue and black curves refer to compounds presented already in the main article and only shown in the Supporting Information, respectively. IC50, half maximal inhibitory concentration; CI95%, half maximal inhibitory concentration expressed as a 95% confidence interval (given in square brackets); […]
IC50 determinations were done using R 3.6.1[2] and the n-parameter logistic regression (nplr) package[3] version 0.1.7. In this package, the weighted nplr, given x (compound concentrations) and y values (activity) is calculated using Richard’s equation (eq 1) where B and T are the bottom and top asymptotes, respectively; b and xmid are the Hill slope and the x coordinate at inflexion point, respectively; and s is an asymmetric coefficient. The model parameters were simultaneously optimized using non-linear minimization, using a sum of squared errors.[4] The standard error of the model, defined as the squared error on the fitted values, is used to estimate a confidence interval at 95% on the predicted IC50 values.

[2] = target: purified mPPase from P. falciparum (PfPPase-VP1) (Plasmodium falciparum, UniProt Q8IKR1); experiment: PfPPase-VP1 inhibition assay; type: biochemical; details: purified PfPPase-VP1, 50 °C, three replicates; read-out: IC50
Method: Further hit validation was done against the purified mPPase from P. falciparum (PfPPase‐VP1) expressed in baculovirus‐infected insect cells. […] Overall, these compounds have higher IC50 values for PfPPase‐VP1 than for TmPPase.
as §1

[3] = tested on: Plasmodium falciparum parasite strain 3D7; experiment: P. falciparum survival (growth) assay in erythrocyte culture, SYBR Green I; type: cell-based; details: 72 h, strain 3D7 in human erythrocytes
Method: Plasmodium falciparum parasite strain 3D7 was used for testing the antiplasmodial activity of the test compounds. The parasite was maintained in culture as described previously.[37] Briefly, parasites were cultured in O+ human erythrocytes at 5 % haematocrit in RPMI‐1640 medium supplemented with 0.5 % Albumax II (Gibco, Carlsbad, CA, USA), 200 μM hypoxanthine (Sigma, St. Louis, MO, USA) and 20 μg/mL gentamycin (Gibco). Parasites were synchronized with the sorbitol method as described.[38] Test compounds were dissolved in DMSO to make a stock solution of 10 mM or 50 mM. Two‐fold serial dilutions of the test compounds were made in the culture medium to cover either the range of 100 μM–100 nM or 400 μM–390 nM. 50 μL of each dilution were mixed in 96‐well plate with 150 μL of 2 % haematocrit of 0.5 % parasitemia (ring stage). Compound dilutions were also mixed with 150 μL of 2 % haematocrit of uninfected erythrocytes to serve as baselines for the activity of the coloured compounds. DMSO concentration in the highest compound concentration was 0.8 %. After 72 h incubation at 37 °C, the parasite growth was quantified using fluorescent SYBR Green I®‐based assay as described.[39] The half‐maximal inhibitory concentration (IC50) of the test compounds was assessed using the non‐linear regression fit model in Prism 7 (GraphPad Software, San Diego, CA, USA). The potent anti‐malarial drug, artemisinin, was used in parallel as a positive control. Each concentration of the test compounds was tested in duplicate and the assay was repeated three times. The mean and standard deviation of the three repeats were used to calculate the IC50.

[4] = Colloidal aggregation by nephelometry under TmPPase assay conditions; type: physicochemical
Method: In order to rule out a cause of false positives, colloidal aggregation in the TmPPase model assay was evaluated for compounds 17 a, 19 a and 20 a at six concentrations (100 μM, 50 μM, 20 μM, 10 μM, 1 μM, and 0.1 μM) using the assay conditions (Figure S3).
3 Aggregation data for 17a, 19a and 20a (Figure S3)
Potential colloidal aggregation in the TmPPase model system was studied by nephelometric methods using Nepheloskan Ascent® (Labsystems, Finland). The original assay conditions were simulated, and the light scattering of potential aggregates in the mixture was studied at six concentrations (100 µM, 50 µM, 20 µM, 10 µM, 1 µM and 0.1 µM). Aggregation of the blank and compounds 17a, 19a and 20a was measured as quadruplicates from one independent experiment at three different voltages (300 V, 400 V and 500 V) at room temperature. […]
values at 10 µM, 1 µM and 0.1 µM were similar to those observed by the blank, indicating merely […]
Figure S3. Aggregation data for compounds 17a, 19a and 20a. The data, measured in relative nephelometric units (RNU), is shown as the mean ± SD and normalized to the blank.
(1 picture or pasted object on this page, not shown here)

[5] = target: T1, Thermotoga maritima mPPase (TmPPase); set-up: method as in PMID 31131322, PMID 32292570; details: previously reported inhibitors, read-out: IC50 [CI95%]; cited from earlier work
[6] = tested on: Plasmodium falciparum parasite strain 3D7; set-up: method as in PMID 32292570; details: cited from earlier work

T1 sequence (Q9S5X0 whole entry): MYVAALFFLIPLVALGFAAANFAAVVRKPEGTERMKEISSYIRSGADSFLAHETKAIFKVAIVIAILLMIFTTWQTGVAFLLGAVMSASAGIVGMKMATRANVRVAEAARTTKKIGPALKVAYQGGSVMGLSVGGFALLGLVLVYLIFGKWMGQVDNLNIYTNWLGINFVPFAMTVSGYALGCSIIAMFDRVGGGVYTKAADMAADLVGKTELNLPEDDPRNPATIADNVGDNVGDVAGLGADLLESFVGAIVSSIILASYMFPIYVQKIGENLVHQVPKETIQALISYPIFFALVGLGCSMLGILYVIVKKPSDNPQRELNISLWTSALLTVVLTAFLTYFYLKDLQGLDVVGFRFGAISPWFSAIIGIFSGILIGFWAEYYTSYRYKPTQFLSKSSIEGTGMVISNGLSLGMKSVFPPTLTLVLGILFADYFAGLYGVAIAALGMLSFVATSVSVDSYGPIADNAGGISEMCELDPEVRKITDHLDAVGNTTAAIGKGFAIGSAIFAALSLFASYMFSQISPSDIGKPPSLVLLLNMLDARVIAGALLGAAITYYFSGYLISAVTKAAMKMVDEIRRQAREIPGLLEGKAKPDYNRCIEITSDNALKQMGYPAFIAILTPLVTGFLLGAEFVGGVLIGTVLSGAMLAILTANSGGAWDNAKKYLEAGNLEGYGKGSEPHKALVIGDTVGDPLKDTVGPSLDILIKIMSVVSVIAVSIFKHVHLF
Chain of purified mPPase from P. falciparum (PfPPase-VP1) (Q8IKR1 entry or part of it): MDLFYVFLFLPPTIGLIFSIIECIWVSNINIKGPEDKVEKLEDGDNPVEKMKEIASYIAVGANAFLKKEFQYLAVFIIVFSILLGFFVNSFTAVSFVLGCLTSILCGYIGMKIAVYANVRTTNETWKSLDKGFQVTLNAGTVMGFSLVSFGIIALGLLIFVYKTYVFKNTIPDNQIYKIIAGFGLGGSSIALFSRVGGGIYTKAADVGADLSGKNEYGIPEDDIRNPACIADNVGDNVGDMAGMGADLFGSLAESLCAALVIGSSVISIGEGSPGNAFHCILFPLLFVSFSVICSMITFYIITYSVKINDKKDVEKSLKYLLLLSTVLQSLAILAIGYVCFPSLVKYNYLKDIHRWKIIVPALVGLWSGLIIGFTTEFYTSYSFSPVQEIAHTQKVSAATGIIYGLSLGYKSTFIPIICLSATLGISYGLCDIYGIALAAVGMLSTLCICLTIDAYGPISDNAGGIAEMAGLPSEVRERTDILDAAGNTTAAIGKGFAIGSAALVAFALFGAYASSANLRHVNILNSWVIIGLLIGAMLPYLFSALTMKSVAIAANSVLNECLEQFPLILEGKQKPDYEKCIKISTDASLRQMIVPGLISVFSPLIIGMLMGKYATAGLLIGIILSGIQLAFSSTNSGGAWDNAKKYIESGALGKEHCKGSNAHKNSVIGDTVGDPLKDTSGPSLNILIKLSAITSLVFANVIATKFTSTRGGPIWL

SMILES | IC50 ([1]; TmPPase inhibition, NA = IC50 not assigned, read-out: IC50 [CI95%]) [µM] | fold loss in activity compared to 2 ([1]; TmPPase, 17 a versus 2) [fold] | IC50 [2] | IC50 ([3]; Plasmodium falciparum, 3D7, Erythrocyte) [µM] | IC50 [3] [µM] | concentration of aggregate formation ([4]; TmPPase assay conditions, six concentrations 100–0.1 μM) | colloidal aggregation ([4]; at 10 µM, 1 µM and 0.1 µM) | colloidal aggregation ([4]; at 100 µM, 50 µM and 20 µM) | IC50 [5] [µM] | activity ex vivo against P. falciparum [6]
Cc1cc(C)cc(-c2cc(C(=O)Oc3ccccc3Br)nc3cc(Br)nn23)c1 [17 a, 2‐Bromophenyl 2‐bromo‐7‐(3,5‐dimethylphenyl)pyrazolo[1,5‐a]pyrimidine‐5‐carboxylate] | 14 | 2 | 58 µM and 57.7 µM | 31 | 30.6 | above 20 μM | negligible/no detectable aggregation | aggregate formation | – | –
Cc1cc(C)cc(-c2cc(C(=O)Oc3ccccc3Br)no2)c1 [compound 2] | – | – | – | – | – | – | – | – | 6.9 | retained activity
